Data as given in US8193203B2, “Bicyclic compounds having activity at the CXCR4 receptor” (Allergan, Inc., priority 2008, dated 2012).

Target: T1, human CXCR4 receptor (Homo sapiens, UniProt P61073)
T1 construct: expressed in transfected cells
Test: Measurement of intracellular Ca+2 responses (FLIPR), antagonism of the SDF-1α response
Format: cell-based
Details: for IC50: HEK-Gqi5 cells stably expressing human CXCR4, Fluo-4 FLIPR, antagonism of SDF-1α 1.9 nM (EC65); for CXCR4 (% Inh): percent antagonism of SDF-1α 1.9 nM (EC65) response, HEK-Gqi5 human CXCR4 cells, value in brackets
In short: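 HEK-Gqi5 cells stably expressing CXCR4, Fluo-4-loaded (2 uM, 40 min, 37 °C), read on FLIPR. Compound (2.44-40,000 nM) added first for agonism, then SDF-1α at 1.9 nM final (EC65); IC50 and percent antagonism from second-addition calcium signal.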

T1 sequence (P61073 whole entry): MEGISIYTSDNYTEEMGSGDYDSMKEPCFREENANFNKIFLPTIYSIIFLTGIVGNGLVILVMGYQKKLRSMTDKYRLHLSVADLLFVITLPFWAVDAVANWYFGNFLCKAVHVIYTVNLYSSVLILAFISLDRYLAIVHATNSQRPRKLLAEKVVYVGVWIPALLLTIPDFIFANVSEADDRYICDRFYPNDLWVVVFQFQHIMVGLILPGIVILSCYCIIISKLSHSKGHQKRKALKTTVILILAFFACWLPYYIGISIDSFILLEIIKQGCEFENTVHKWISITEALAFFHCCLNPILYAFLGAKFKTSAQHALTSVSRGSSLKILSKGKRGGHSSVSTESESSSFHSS

| SMILES | IC50 (values in nM) [nM] | CXCR4 (% Inh) [%] | IC50 (values given in μM) [nM] |
| --- | --- | --- | --- |
| CCNCCNc1nc(NC2CCN(Cc3c(OC)cccc3N(C)C)CC2)c2ccccc2n1 [Compound 105, N4-(1-(2-(Dimethylamino)-6-methoxybenzyl)piperidin-4-yl)-N2-(2-(ethylamino)ethyl)quinazoline-2,4-diamine] | 771 | 98 |  |
| COc1cccc(N(C)C)c1CN1CCC(Nc2nc(NCCCn3ccnc3)nc3ccccc23)CC1 [Compound 120, N2-(3-(1H-Imidazol-1-yl)propyl)-N4-(1-(2-(dimethylamino)-6-methoxybenzyl)piperidin-4-yl)quinazoline-2,4-diamine] |  | 95 | 1700 |
| COc1cccc(N(C)C)c1CN1CCC(Nc2nc(NCC[C@H]3CCCN3)nc3ccccc23)CC1 [Compound 117, (R)—N-4-(1-(2-(Dimethylamino)-6-methoxybenzyl)piperidin-4-yl)-N2-(2-(pyrrolidin-2-yl)ethyl)quinazoline-2,4-diamine] | 319 | 95 |  |
| COc1cc2nc(NCCCN3CCCC3)nc(NC3CCN(Cc4ccccc4N(C)C)CC3)c2cc1OC [Compound 33] | 617 | 93 |  |
| COc1cccc(N(C)C)c1CN1CCC(Nc2nc(NCC3CCN(C(=O)OC(C)(C)C)C3)nc3ccccc23)CC1 (stereo not shown) [Compound 106, tert-Butyl 3-((4-(1-(2-(Dimethylamino)-6-methoxybenzyl)piperidin-4-ylamino)quinazolin-2-ylamino)methyl)pyrrolidine-1-carboxylate] |  | 73 | 2300 |
| COc1cc2nc(NCCCN)nc(NC3CCN(Cc4c(OCCN(C)C)cccc4N(C)C)CC3)c2cc1OC [Compound 182, N˜2˜-(3-Aminopropyl)-N˜4˜-(1-{2-(dimethylamino)-6-[2-(dimethylamino)ethoxy]benzyl}piperidin-4-yl)-6,7-dimethoxyquinazoline-2,4-diamine] | 47 | 94 |  |
| COc1cc2nc(NCCCN(C)C)nc(NC3CCN(Cc4c(OC)cccc4N(C)CCN(C)C)CC3)c2cc1OC [Compound 157, N˜4˜-[1-(2-{[2-(Dimethylamino)ethyl](methyl)amino}-6-methoxybenzyl)piperidin-4-yl]-N˜2˜-[3-(dimethylamino)propyl]-6,7-dimethoxyquinazoline-2,4-diamine] | 411 | 94 |  |
| COc1cccc(N(C)C)c1CN1CCC(Nc2nc(NCC3CN(C(=O)OC(C)(C)C)C3)nc3ccccc23)CC1 [Compound 108, tert-Butyl 3-((4-(1-(2-(Dimethylamino)-6-methoxybenzyl)piperidin-4-ylamino)quinazolin-2-ylamino)methyl)azetidine-1-carboxylate] |  | 89 | 2000 |
| CCN(CC)CCCNc1nc(NC2CCN(Cc3ccccc3-n3ccnc3)CC2)c2ccccc2n1 [Compound 131, N4-(1-(2-(1H-Imidazol-1-yl)benzyl)piperidin-4-yl)-N2-(3-(diethylamino)propyl)quinazoline-2,4-diamine] |  | 74 | 6600 |
| CCN(CC)C(=O)CCNc1nc(NC2CCN(Cc3ccccc3N(C)C)CC2)c2cc(OC)c(OC)cc2n1 [Compound 31] |  | 92 | 2400 |
| COc1cc2nc(NCc3cncn3C)nc(NC3CCN(Cc4c(OCCN(C)C)cccc4N(C)C)CC3)c2cc1OC [Compound 198, N˜4˜-(1-{2-(Dimethylamino)-6-[2-(dimethylamino)ethoxy]benzyl}piperidin-4-yl)-6,7-dimethoxy-N˜2˜-[(1-methyl-1H-imidazol-5-yl)methyl]quinazoline-2,4-diamine] | 36 | 98 |  |
| COc1cc2nc(NCc3cc[nH]n3)nc(NC3CCN(Cc4c(OCCN(C)C)cccc4N(C)C)CC3)c2cc1OC [Compound 216, N˜4˜-(1-{2-(Dimethylamino)-6-[2-(dimethylamino)ethoxy]benzyl}piperidin-4-yl)-6,7-dimethoxy-N˜2˜-(1H-pyrazol-3-ylmethyl)quinazoline-2,4-diamine] | 32 | 100 |  |
| CCN(CC)CCCNc1nc(NC2CCN(Cc3c(OC)cccc3N(C)C)CC2)c2cc(OC)c(OC)cc2n1 [Compound 42, N2-(3-(Diethylamino)propyl)-N4-(1-(2-(dimethylamino)-6-methoxybenzyl)piperidin-4-yl)-6,7-dimethoxyquinazoline-2,4-diamine] | 179 | 98 |  |
| COc1cccc(N(C)C)c1CN1CCC(Nc2nc(NCCC3CCCN3C)nc3ccccc23)CC1 (stereo not shown) [Compound 97, N4-(1-(2-(Dimethylamino)-6-methoxybenzyl)piperidin-4-yl)-N2-(2-(1-methylpyrrolidin-2-yl)ethyl)quinazoline-2,4-diamine] | 140 | 100 |  |
| COc1cccc(N(C)C)c1CN1CCC(Nc2nc(NCCN3CC(C)OC(C)C3)nc3ccccc23)CC1 (stereo not shown) [Compound 95, N4-(1-(2-(Dimethylamino)-6-methoxybenzyl)piperidin-4-yl)-N2-(2-(2,6-dimethylmorpholino)ethyl)quinazoline-2,4-diamine] | 605 | 98 |  |
| CNCCCCNc1nc(NC2CCN(Cc3c(OC)cccc3N(C)C)CC2)c2ccccc2n1 [Compound 102, N4-(1-(2-(Dimethylamino)-6-methoxybenzyl)piperidin-4-yl)-N2-(4-(methylamino)butyl)quinazoline-2,4-diamine] | 215 | 97 |  |
| COc1cc2nc(NCC3CNC3)nc(NC3CCN(Cc4c(OCCN(C)C)cccc4N(C)C)CC3)c2cc1OC [Compound 230, N2-(Azetidin-3-ylmethyl)-N4-(1-(2-(dimethylamino)-6-(2-(dimethylamino)ethoxy)benzyl)piperidin-4-yl)-6,7-dimethoxyquinazoline-2,4-diamine] | 56 | 96 |  |
| COc1cccc(N(C)C)c1CN1CCC(Nc2nc(NCCCN)nc3ccccc23)CC1 [Compound 80, N˜2˜-(3-Aminopropyl)-N˜4˜-{1-[2-(dimethylamino)-6-methoxybenzyl]piperidin-4-yl}quinazoline-2,4-diamine] | 130 | 94 |  |
| COc1cccc(N(C)C)c1CN1CCC(Nc2nc(NCCC#N)nc3ccccc23)CC1 [Compound 100, 3-(4-(1-(2-(Dimethylamino)-6-methoxybenzyl)piperidin-4-ylamino)quinazolin-2-ylamino)propanenitrile] |  | 100 | 1900 |
| CCCCNc1nc(NC2CCN(Cc3c(OC)cccc3N(C)C)CC2)c2ccccc2n1 [Compound 91, N2-Butyl-N4-(1-(2-(dimethylamino)-6-methoxybenzyl)piperidin-4-yl)quinazoline-2,4-diamine] |  | 80 | 2000 |
| CCN(CC)CCNc1nc(NC2CCN(Cc3ccccc3N(C)C)CC2)c2ccccc2n1 [Compound 36, N2-(2-(Diethylamino)ethyl)-N4-(1-(2-(dimethylamino)benzyl)piperidin-4-yl)quinazoline-2,4-diamine] | 800 | 90 |  |
| CCN(CC)CCCNc1nc(NC2CCN(Cc3ccccc3-n3cccc3)CC2)c2ccccc2n1 [Compound 132, N4-(1-(2-(1H-Pyrrol-1-yl)benzyl)piperidin-4-yl)-N2-(3-(diethylamino)propyl)quinazoline-2,4-diamine] |  | 84 | 1400 |
| COc1cc2nc(NCCN)nc(NC3CCN(Cc4c(OCCN(C)C)cccc4N(C)C)CC3)c2cc1OC [Compound 180, N˜2˜-(2-Aminoethyl)-N˜4˜-(1-{2-(dimethylamino)-6-[2-(dimethylamino)ethoxy]benzyl}piperidin-4-yl)-6,7-dimethoxyquinazoline-2,4-diamine] | 116 | 94 |  |
| COc1cc2nc(NC[C@@H](O)CO)nc(NC3CCN(Cc4c(OCCN(C)C)cccc4N(C)C)CC3)c2cc1OC [Compound 194, 3-({4-[(1-{2-(Dimethylamino)-6-[2-(dimethylamino)ethoxy]benzyl}piperidin-4-yl)amino]-6,7-dimethoxyquinazolin-2-yl}amino)propane-1,2-diol] | 74 | 96 |  |
| COc1cccc(N(C)C)c1CN1CCC(Nc2nc(N3CCC3)nc3ccccc23)CC1 [Compound 88, 2-(Azetidin-1-yl)-N-(1-(2-(dimethylamino)-6-methoxybenzyl)piperidin-4-yl)quinazolin-4-amine] |  | 94 | 1900 |
| COc1cccc(N(C)C)c1CN1CCC(Nc2nc(NC3CCN(C)CC3)nc3ccccc23)CC1 [Compound 94, N4-(1-(2-(Dimethylamino)-6-methoxybenzyl)piperidin-4-yl)-N2-(1-methylpiperidin-4-yl)quinazoline-2,4-diamine] | 790 | 96 |  |
| CCN(CC)CCCNc1nc(NC2CCN(Cc3ccccc3[N+](=O)[O-])CC2)c2cc(OC)c(OC)cc2n1 [Compound 65, N2-(3-(Diethylamino)propyl)-6,7-dimethoxy-N4-(1-(2-nitrobenzyl)piperidin-4-yl)quinazoline-2,4-diamine] |  | 93 | 4900 |
| COc1cc2nc(NCCCN(C)C)nc(NC3CCN(Cc4ccccc4N(C)C(C)C)CC3)c2cc1OC [Compound 224, N2-(3-(Dimethylamino)propyl)-N4-(1-(2-(isopropyl(methyl)amino)benzyl)piperidin-4-yl)-6,7-dimethoxyquinazoline-2,4-diamine] | 695 | 92 |  |
| COc1cccc(N(C)C)c1CN1CCC(Nc2nc(NCC3CNC3)nc3ccccc23)CC1 [Compound 109, N2-(Azetidin-3-ylmethyl)-N4-(1-(2-(dimethylamino)-6-methoxybenzyl)piperidin-4-yl)quinazoline-2,4-diamine] | 155 | 98 |  |
